Where a name gives a salt, the structure may show the parent alone.

The first assay has as its system A II-infused rat. In words: A II-infused rat model (ganglion-blocked), antihypertensive action. In kind it is in vivo. To be noted: 3 mg/kg id (intraduodenal), four hours post-administration. As for the experimental part:
In accordance with their ability to antagonize angiotensin II, the compounds of this invention show antihypertensive action in the following A II-infused rat model. Rats are anesthetized with Dial-Urethane (0.60 mL/kg, ip) and the trachea cannulated with PE 240. Either one femoral artery and both femoral veins or the carotid artery and the corresponding jugular vein are cannulated with PE 50. If the jugular vein is cannulated, two cannulas are placed in the one vein. The initial portion of the duodenum (just distal to the stomach) is cannulated with PE 50 via a small midline incision. Arterial pressure and heart rate are measured from the arterial cannula. Ten to 15 min are allowed following surgery for stabilization of arterial pressure. Ganglion blockade is then produced by intravenous administration of mecamylamine at 3 mg/kg (1 mL/kg of a 3 mg/mL solution). Ganglion blockade causes a fall in arterial pressure of about 50 mmHg. Mecamylamine is given every 90 min throughout the remainder of the experiment. An A II infusion is then begun into the other venous cannula at 0.25 μg/kg/min (at […]). The A II infusion returns arterial pressure to or slightly above the control level. Once arterial pressure has stabilized with the A II infusion, baseline values for mean arterial pressure (MAP) and heart rate are taken. […]
For `FC(F)(F)c1nc2c(c(NCc3ccc(-c4ccccc4-c4nn[nH]n4)nc3)n1)CCCC2` [Example 9], the “lowering of A II dependent blood pressure, average” value came to 70%.

In the next assay the target is angiotensin II receptor. In words: rat adrenal receptor binding assay, displacement of radiolabeled (125I) angiotensin II. To be noted: rat adrenal cortex membranes; 1 nM 125I-A II; 35 min at 25° C.; pH 7.4; read-out: IC50, Inhibition of 125I Angiotensin II Binding. The procedure:
The high affinity of the compounds for the angiotensin II receptor was established using a rat adrenal receptor binding assay, measuring the displacement of radiolabeled angiotensin II from the receptor, described as follows: Anesthetize male Sprague-Dawley rats (300-400 g body weight) with CO2 and sacrifice by cervical dislocation. Dissect adrenal glands and keep in ice-cold sucrose buffer (0.2M sucrose, 1 mM EDTA, 10 mM Trizma base, pH=7.2). Remove medulla by squashing. Mince the cortex, rinse and homogenize in a chilled ground glass tissue grinder with 15 mL sucrose buffer. Centrifuge at 3000×g for 10 min. (Sorvall RCSC centrifuge, SS34 rotor 6200 rpm). Decant supernatant through gauze. Centrifuge combined supernatant at 12000×g for 13 min. (Beckman ultracentrifuge, 80Ti rotor, 13000 rpm). Centrifuge the supernatant from the previous step at 102000×g for 60 min. (Beckman ultracentrifuge, 80Ti rotor, 38200 rpm). All steps are carried out at 4° C. Resuspend the pellet in 0.5 mL assay buffer (50 mM Tris HCI, 5 mM MgCl2, 0.2% BSA (protease-free), pH=7.4, 25° C.). Store on ice. Determine membrane protein by Lowry or Bradford assay with BSA as standard. The binding assay is performed in triplicate, in 12×75 mm plastic test tubes or in a 96-well plate (final volume of 0.25 mL). Add 140 μL assay buffer. Add 10 μL cold A II (to give final concentrations of 10^-10 -10^-7 M for standard curve and 10^-4 M for nonspecific binding), compounds (e.g., for final concentrations of 25 and 100 μM or 1 μM, 10 nM and 100 nM) in 50% DMSO, or 50% DMSO as a control. Add 50 μL membrane suspension (e.g., 10 μg protein). Preincubate for 30 min at 25° C. Add 50 μL ^125 I-A II which has been prepared as shown below (final concentration=1 nM). Incubate for 35 min at 25° C. Stop the incubation by adding 1 mL ice-cold buffer (assay buffer without BSA). Filter with GF/C filters on cell harvester (filters are presoaked in the assay buffer containing 1% polyethyleneimine). Rinse assay tubes 3× with 5 mL cold buffer (assay buffer without BSA). Cut and deposit the filter discs into test tubes and count on gamma counter for 1 min. Adjust the specific activity of ^125 I-A II purchased from New England Nuclear to 500 μCi/nmole by adding cold A II in water. Calculate the quantities of hot A II and the cold A II needed and make the dilution. Aliquot, seal tight, and store frozen until needed. Calculate the concentration of the total A II (hot+cold) after dilution. On the day of assay, thaw the frozen aliquot and adjust the volume to give a concentration of 5 pmole/mL (or 0.25 pmole/50 μL) with assay buffer (+protease-free BSA). For final concentration of 1 nM ^125 I-A II in the assay, add 50 μL (or 0.25 pmole) per test tube to a final volume of 250 μL. The results of these binding assays are reported as the inhibitory concentration of the test compound necessary to achieve fifty percent displacement of radiolabeled angiotensin II from its receptor (IC50), or the percent displacement of binding of A II at its receptor at 10^-8 M concentration of test compound (% I).
As usually defined, the IC50 is the concentration that inhibits the measured activity by half. On to `CCCc1nc2ccccc2n1CCC1CCN(c2ccccc2-c2nnn[nH]2)CC1` [Example 6, 2-Propyl-1-[2-[1-[2-(1H-tetrazol-5-yl)phenyl]-4-piperidinyl]ethyl]-1H-benzimidazole], for which the IC50 came to 30 µM.

As to `CCCc1nc2c(C)cccc2n1Cc1ccc(-c2ccccc2-c2nnn[nH]2)nc1` [Example 8, 4-Methyl-2-propyl-1-[[2-[2-(1H-tetrazol-5-yl)phenyl]-5-pyridinyl]methyl]-1H-benzimidazole], the half-maximal inhibitory concentration (IC50) came to 15 µM.

Regarding `CCCc1nc2ccccc2n1CC1=C(c2cccc(-c3nnn[nH]3)c2)CCC1` [Example 2, 2-Propyl-1-[[2-[3-(1H-tetrazol-5-yl)phenyl]-1-cyclopentenyl]methyl]1H-benzimidazole], the IC50 was found to be 73 µM.

For the molecule `CCCc1nc2ccccc2n1Cc1ccc(-c2ncccc2C(=O)O)cc1` [Example 10, 2-[4-[(2-Propyl-1H-benzimidazol-1-yl)methyl]phenyl]-3-pyridinecarboxylic Acid], the IC50 was 200 µM.

With `FC(F)(F)c1nc2c(c(NCc3ccc(-c4ccccc4-c4nn[nH]n4)nc3)n1)CCCC2` [Example 9], the IC50 was 4.5 µM.

Take `CCCc1nc2ccccc2n1Cc1ccc(-c2ccccc2-c2nnn[nH]2)nc1` [Example 7, 2-Propyl-1-[[2-[2-(1H-tetrazol-5-yl)phenyl]-5-pyridinyl]methyl]-1H-benzimidazole]: the IC50 worked out at 24 µM.

For `CCCc1nc2ccccc2n1Cc1ccc(C2=C(C(=O)O)CCC2)cc1` [Example 3, 2-[4-[(2-Propyl-1H-benzimidazol-1-yl)methyl]phenyl]-1-cyclopentene-1-carboxylic Acid], the IC50 is 20 µM.

Consider `CCCc1nc2ccccc2n1CCN1CCN(c2ccccc2-c2nnn[nH]2)CC1` [Example 5, 2-Propyl-1-[2-[4-[2-(1H-tetrazol-5-yl)phenyl]-1-piperazinyl]ethyl]-1H-benzimidazole Potassium Salt], for which the IC50 was determined as 43 µM.

On to `CCCc1nc2ccccc2n1Cc1ccc(C2CCCC2C(=O)O)cc1` (centres unmarked) [Example 4, 2-[4-[(2-Propyl-1H-benzimidazol-1-yl)methyl]phenyl]cyclopentane-1-carboxylic Acid], for which the IC50 came to 25 µM.

As for `CCCc1nc2ccccc2n1CC1=C(c2ccccc2-c2nnn[nH]2)CCC1` [Example 1, 2-Propyl-1-[[2-[2-(1H-tetrazol-5-yl)phenyl]-1-cyclopentenyl]methyl]-1H-benzimidazole], the IC50 was 200 µM.

These data come from patent publication US5451583A, “Substituted benzimidazoles and quinazolines as antihypertensives” (American Home Products Corporation, priority 1994, dated 1995).
